Key:
human CYP11B2 = human CYP11B2 (Homo sapiens (Human), UniProt P19099); assay: G-402 cellular enzyme assay, human CYP11B2 (aldosterone release, HTRF); assay type: cell-based; conditions: G-402 cells expressing human CYP11B2; 1 μM Deoxycorticosterone
From the text: (§1) Herein we identified the use of the G-402 cell line as a host cell to ectopically express (transiently or stably) enzymes of the CYP11 family. Specifically we developed stable G-402 cells expressing ectopically human CYP11B1, human CYP11B2, human CYP11A1, cynmolgus CYP11B1 or cynomolgus CYP11B2 enzyme activity. Importantly the identified cell line G-402 expresses co-factors (adrenodoxin and adrenodoxin reductase) important for the activity of the CYP11 family and no relevant enzyme activity of the CYP11 family (in comparison to H295R cells) was detected in these cells. Therefore the G-402 cell line is uniquely suited as a host cell for the ectopic expression of enzymes from the CYP11 family.
(§2) G-402 cells can be obtained from ATCC (CRL-1440) and were originally derived from a renal leiomyoblastoma.
(§3) The expression plasmids contains the ORF for either human/cyno CYP11B1 or CYP11B2 under the control of a suitable promoter (CMV-promoter) and a suitable resistance marker (neomycin). Using standard techniques the expression plasmid is transfected into G-402 cells and these cells are then selected for expressing the given resistance markers. Individual cell-clones are then selected and assessed for displaying the desired enzymatic activity using 11-Deoxycorticosterone (Cyp11B2) or 11-Deoxycortisol (Cyp11B1) as a substrate.
(§4) G-402 cells expressing CYP11 constructs were established as described above and maintained in McCoy's 5a Medium Modified, ATCC Catalog No. 30-2007 containing 10% FCS and 400 μg/ml G418 (Geneticin) at 37° C. under an atmosphere of 5% CO2/95% air. Cellular enzyme assays were performed in DMEM/F12 medium containing 2.5% charcoal treated FCS and appropriate concentration of substrate (0.3-10 uM 11-Deoxycorticosterone, 11-Deoxycortisol or Corticosterone). For assaying enzymatic activity, cells were plated onto 96 well plates and incubated for 16 h. An aliquot of the supernatant is then transferred and analyzed for the concentration of the expected product (Aldosterone for CYP11B2; Cortisol for CYP11B1). The concentrations of these steroids can be determined using HTRF assays from CisBio analyzing either Aldosterone or Cortisol.
(§5) Inhibition of the release of produced steroids can be used as a measure of the respective enzyme inhibition by test compounds added during the cellular enzyme assay. The dose dependent inhibition of enzymatic activity by a compound is calculated by means of plotting added inhibitor concentrations (x-axes) vs. measured steroid/product level (y-axes). The inhibition is then calculated by fitting the following 4-parameter sigmoidal function (Morgan-Mercer-Flodin (MMF) model) to the raw data points using the least squares method:
(§6) [formula] wherein, A is the maximum y value, B is the EC50 factor determined using XLFit, C is the minimum y value and D is the slope value.
(§7) EC50 values for compounds claimed herein were tested with the G402-based assay system described. Cyp11B2 enzyme activity was tested in presence of 1 μM Deoxycorticosterone and variable amounts of inhibitors; Cyp11B1 enzyme activity was tested in presence of 1 μM Deoxycortisol and variable amounts of inhibitors.

human CYP11B1 = human CYP11B1 (Homo sapiens (Human), UniProt P15538); assay: G-402 cellular enzyme assay, human CYP11B1 (cortisol release, HTRF); assay type: cell-based; conditions: G-402 cells expressing human CYP11B1; 1 μM Deoxycortisol
From the text: as §1, §2, §3, §4, §5, §6, §7

Chain of human CYP11B2 (P19099 25-503): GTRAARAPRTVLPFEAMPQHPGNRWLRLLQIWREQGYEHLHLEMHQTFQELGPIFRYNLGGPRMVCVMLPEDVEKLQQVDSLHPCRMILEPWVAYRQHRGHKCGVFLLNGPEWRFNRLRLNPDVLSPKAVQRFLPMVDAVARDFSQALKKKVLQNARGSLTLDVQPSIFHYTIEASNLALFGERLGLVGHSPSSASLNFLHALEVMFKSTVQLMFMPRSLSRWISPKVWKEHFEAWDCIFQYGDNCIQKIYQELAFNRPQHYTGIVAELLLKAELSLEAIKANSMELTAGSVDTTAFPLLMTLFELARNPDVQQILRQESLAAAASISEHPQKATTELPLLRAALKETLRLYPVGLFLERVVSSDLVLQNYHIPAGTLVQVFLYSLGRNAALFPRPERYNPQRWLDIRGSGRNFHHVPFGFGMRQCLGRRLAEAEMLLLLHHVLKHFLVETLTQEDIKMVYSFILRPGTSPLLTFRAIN
Chain of human CYP11B1 (P15538 25-503): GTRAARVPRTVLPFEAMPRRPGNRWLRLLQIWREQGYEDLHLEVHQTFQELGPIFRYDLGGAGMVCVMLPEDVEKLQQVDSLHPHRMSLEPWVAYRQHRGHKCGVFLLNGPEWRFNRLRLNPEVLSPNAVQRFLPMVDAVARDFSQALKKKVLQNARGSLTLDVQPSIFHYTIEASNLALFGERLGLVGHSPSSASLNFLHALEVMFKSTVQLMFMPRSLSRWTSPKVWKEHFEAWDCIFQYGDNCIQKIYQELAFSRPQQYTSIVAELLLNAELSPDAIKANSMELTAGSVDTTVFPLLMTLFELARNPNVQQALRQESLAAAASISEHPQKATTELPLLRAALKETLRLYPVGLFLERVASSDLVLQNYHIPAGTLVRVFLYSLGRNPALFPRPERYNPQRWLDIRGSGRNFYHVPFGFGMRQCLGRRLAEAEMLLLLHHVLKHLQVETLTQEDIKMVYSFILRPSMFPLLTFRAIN

| SMILES | EC50 (human CYP11B2) [nM] | EC50 (human CYP11B1) [nM] |
| --- | --- | --- |
| N#Cc1ccc(Oc2cn[nH]c2-c2cnn(Cc3ccccc3)c2)cc1 [Example 68, 4-[[5-(1-Benzylpyrazol-4-yl)-1H-pyrazol-4-yl]oxy]benzonitrile] | 439 | 2400 |
| CS(=O)(=O)c1ccc(-c2[nH]ncc2Oc2ccc(C(F)(F)F)cc2)cc1 [Example 16, 5-(4-Methylsulfonylphenyl)-4-[4-(trifluoromethyl)phenoxy]-1H-pyrazole] | 84.5 | 1970 |
| N#Cc1ccc(Oc2cn[nH]c2-c2cccc(C(=O)N3CCOCC3)c2)cc1 [Example 45, 4-[[3-[3-(Morpholine-4-carbonyl)phenyl]-1H-pyrazol-4-yl]oxy]benzonitrile] | 397 | 2400 |
| Clc1ccc(Oc2cn[nH]c2-c2ccc(Cl)cc2)cc1 [Example 3, 4-(4-Chlorophenoxy)-3-(4-chlorophenyl)-1H-pyrazole] | 323 | 1380 |
| Fc1cccc(-c2[nH]ncc2Oc2ccc(Cl)cc2)c1F [Example 1, 4-(4-Chlorophenoxy)-5-(2,3-difluorophenyl)-1H-pyrazole] | 29.8 | 1030 |
| FC(F)(F)Oc1ccccc1-c1[nH]ncc1Oc1ccc(Cl)cc1 [Example 7, 4-(4-Chlorophenoxy)-5-[2-(trifluoromethoxy)phenyl]-1H-pyrazole] | 24.4 | 861 |
| FC(F)(F)c1ccc(-c2[nH]ncc2Oc2ccc(Cl)cc2)cc1 [Example 14, 4-(4-Chlorophenoxy)-5-[4-(trifluoromethyl)phenyl]-1H-pyrazole] | 2030 | 2670 |
| CS(=O)(=O)N1CCN(C(=O)c2cccc(-c3[nH]ncc3Oc3ccc(C#N)cc3)c2)CC1 [Example 46, 4-[[3-[3-(4-Methylsulfonylpiperazine-1-carbonyl)phenyl]-1H-pyrazol-4-yl]oxy]benzonitrile] | 1050 | 10700 |
| CCCCOc1cccc(-c2[nH]ncc2Oc2ccc(C#N)cc2)c1 [Example 59, 4-[[5-(3-Butoxyphenyl)-1H-pyrazol-4-yl]oxy]benzonitrile] | 10.9 | 102 |
| N#Cc1ccc(Oc2cn[nH]c2-c2ccccc2O)cc1 [Example 78, 4-[[3-(2-Hydroxyphenyl)-1H-pyrazol-4-yl]oxy]benzonitrile] | 0.3 | 10.7 |
| N#Cc1ccc(Oc2cn[nH]c2-c2cccc(O)c2)cc1 [Example 48, 4-[[3-(3-Hydroxyphenyl)-1H-pyrazol-4-yl]oxy]benzonitrile] | 20.4 | 83.4 |
| N#Cc1ccc(Oc2cn[nH]c2C2CCCN(C(=O)c3cccnc3)C2)c(F)c1 (racemic) [Example 91, (rac)-3-Fluoro-4-[[3-[1-(pyridine-3-carbonyl)piperidin-3-yl]-1H-pyrazol-4-yl]oxy]benzonitrile] | 1260 | 9010 |
| Fc1cccc(Oc2cn[nH]c2-c2ccc(Cl)cc2Cl)n1 [Example 21, 2-[[5-(2,4-Dichlorophenyl)-1H-pyrazol-4-yl]oxy]-6-fluoropyridine] | 101 | 841 |
| N#Cc1ccc(Oc2cn[nH]c2-c2cccc(OCc3ccnc(Cl)c3)c2F)cc1 [Example 86, 4-[[3-[3-[(2-Chloropyridin-4-yl)methoxy]-2-fluorophenyl]-1H-pyrazol-4-yl]oxy]benzonitrile] | 4.3 | 28 |
| Fc1ccccc1-c1[nH]ncc1Oc1ccc(Cl)cc1 [Example 9, 4-(4-Chlorophenoxy)-5-(2-fluorophenyl)-1H-pyrazole] | 7.9 | 167 |
| N#Cc1ccc(Oc2cn[nH]c2-c2cccc(OCc3ccccn3)c2)cc1 [Example 50, 4-[[3-[3-(Pyridin-2-ylmethoxy)phenyl]-1H-pyrazol-4-yl]oxy]benzonitrile] | 10.4 | 51.6 |
| COC(=O)c1cccc(-c2[nH]ncc2Oc2ccc(C#N)cc2F)c1 [Example 38, Methyl 3-[4-(4-cyano-2-fluorophenoxy)-1H-pyrazol-3-yl]benzoate] | 31.9 | 321 |
